Reference: US20150093333A1, “COMPOSITIONS, METHODS AND USES FOR PEPTIDES IN DIAGNOSIS, PROGRESSION AND TREATMENT OF CANCERS” (THE REGENTS OF THE UNIVERSITY OF COLORADO, body corporate, priority 2003, published 2015)

Tests used:
[1] = tested on: PS-exposing cell membranes; test: Fluorescence staining of PS-exposing membranes in dissected gonads of C. elegans; format: in vivo; settings: wild type (N2), tat-1(tm3117) and ced-7(n2094) animals
Description: Fluorescence staining assays were carried out in an acceptible C. elegans model with PS-exposing cell membranes. […] NBD-MARCKS-ED was used to stain the dissected gonads of wild type (N2) animals, tat-1(tm3117) mutant animals, and engulfment-deficient ced-7 (n2094) mutant animals, respectively. 36 hour old hermaphrodite adult animals were collected and gently dissected by cutting their heads in a depression slide with a gonad dissection buffer (previously presented) to expose the gonads. The exposed gonads were then washed once in the dissection buffer and transferred to a dissection buffer containing 4 μM of Hoechst 33342 and 20 μM of NBD labeled MARCKS-ED peptide, 20 μM NBD-MARCKSmut1 peptide, or 10 nM Alexa Fluor 488-conjugated Annexin-V for 45 minutes. Gonads were washed one more time in the dissection buffer, placed on a 5% agarose pad, and visualized using a Nomarski microscope equipped with an epifluorescence detector.
FIGS. 6A-6C illustrate exemplary staining results using MARCKS derived peptides and Annexin V. PS is typically kept in the inner leaflet of plasma membranes in living cells and is exposed on the cell surface only under certain cellular events, i.e., when cells undergo apoptosis or lose the ability to maintain the PS asymmetry with a tat-1 gene mutation. FIG. 6A represents the staining results with labeled MARCKS-ED in wild type and mutants C. elegans. […] FIG. 6B represents the staining results with labeled MARCKSmut1 in wild type and mutants C. elegans. […] In FIGS. 6A-6B, nuclei were stained with Hoechst 33342. Annexin-V, a known PS-sensor, was also used to stain the gonads of tat-1 and ced-7 mutant C. elegans. […] Hoechst33342 (4 μM), FITC-AnnexinV (10 nM) and Nomarski images are shown. […] Scale bar=10 μm.

synthetic lipid vesicles = test: Fluorescence enhancement assay of NBD-labeled MARCKS peptides with synthetic vesicles; format: binding
Excerpt: (§1) In another exemplary method, lipid vesicles were employed to the curvature-sensing behavior of the MARCKS derived peptides with various sizes and lipid components. The membrane curvature is defined as the reciprocal of the diameter of a particular particle, e.g., smaller-sized vesicles present highly curved membrane bilayers. A series of lipid models were made to represent various lipid components that closely resemble the lipid composition of biological membranes. […] Dynamic light scattering (DLS) and negative-stain transmission electron microscopy (TEM) were performed to confirm the different vesicle sizes following the pressure-controlled extrusion process through different membrane diameter pores. Commercial polystyrene beads were used as the calibration standard for the vesicle size validation experiments. Furthermore, a time-course experiment was carried out to confirm the stability of the vesicles up to 16 hours. Three different membrane diameters were extruded for the following biophysical characterizations: 30 nm, 100 nm, 400 nm, reflecting different membrane curvatures.
Next, a fluorescence enhancement assay was conducted to further quantify the curvature- and PS-sensing behavior of MARCKS-ED. Appropriate controls were performed to confirm that the fluorophore alone had no effect on the observed fluorescence enhancement (data not shown). FIG. 4 represents histogram data of fluorescence enhancement assay with and fluorescence anisotropy titration of the NBD labeled MARCKS derived peptides. Upon binding to lipid vesicles, the fluorescence intensity of NBD-MARCKS-ED increased due to vesicle binding and changes in the hydrophobic environment surrounding the fluorophore, concurring with a slight blue shift of the maximum emission wavelength. The emission spectra of all NBD-labeled peptides were recorded using a Fluorolog-3 fluorometer with λex=480 nm. The peptides and protein were tested at a concentration of 500 nM in PBS (pH 7.40) treated with 500 μM synthetic vesicles of different vesicles sizes. […] The positive control C2AB (200 nM) from the rat Synaptotagmin-1 (Syn-1) protein (G374, residues 96-421) was treated with CaCl2 (2.5 mM) and observed with λex of 275 nm and emission range of 300-450 nm. The untreated peptide and Ca^2+-C2AB samples were corrected by the PBS (pH=7.40) blank solution for the peptides and PBS with Ca^2+ for the Ca^2+-C2AB sample. All samples were prepared and incubated overnight in 4° C.
FIG. 4A illustrates a histogram plot of fluorescence intensity of MARCKS-ED treated with lipid vesicles of various sizes. […] Last, the fluorescence intensity differences were less significant with vesicles containing no PS. […]

[2] = tested on: synthetic vesicles of sizes 100 nm and 400 nm; test: Cosedimentation assay of MARCKS-ED with synthetic vesicles; format: binding
Excerpt: as §1
In another exemplary method, a cosedimentation assay was performed to test the size differentiation behavior of MARCKS-ED. Two vesicle pore sizes, 100 and 400 nm, were used in this experiment because vesicles smaller than 100 nm were difficult to pellet even at high centrifugation speed. MARCKS-ED (10 μM) was incubated with 600 μM synthetic vesicles of sizes 100 nm and 400 nm. The positive control was the intact C2A-C2B cytoplasmic domains (C2AB) of rat Synaptotamin-1 (a.a. 96-421). C2AB (1.5 μM) was treated with CaCl2 (1 mM) and incubated with 300 μM synthetic vesicles of sizes 100 nm and 400 nm. C2AB treated with vesicles was incubated at room temperature for 30 minutes, followed by centrifugation of 65,000 rpm for 45 minutes at 20° C. MARCKS-ED treated with vesicles was incubated at room temperature for 2 hours, followed by 75,000 rpm for 45 minutes at 20° C. […]

KKKKKRFSFKKSFKLSGFSFKKNKK [MARCKS-ED] was tested, and the “staining of PS-exposed membranes” value [1] was “recognizes PS exposed on the surface of all germ cells in the tat-1 (tm3117) mutant and un-engulfed apoptotic germ cell corpses in the ced-7(n2094) mutant”, the “reversal of binding by CaM” value (synthetic lipid vesicles; addition of CaM) was “could be partially reversed” and the “fluorescence intensity increase, 30 nm vs 400 nm vesicles” value (synthetic lipid vesicles; peptide 500 nM, 500 μM vesicles containing PS) was “approximately 1.5 fold”. For the same sequence, the “pull-down by lipid vesicles without PS” value [2] was “less MARCKS-ED was pulled down” and the “pull-down by 100 nm vs 400 nm PS-containing vesicles” value ([2]; gel electrophoresis of supernatant and pellet) was “binds more tightly to highly curved vesicles containing PS”.
